These results are taken from patent US9759709B1, “Devices and methods to monitor HIV-infection in presence of substance of abuse and/or therapeutic agent” (THE FLORIDA INTERNATIONAL UNIVERSITY BOARD OF TRUSTEES, priority 2016, dated 2017).

Format in all cases: cell-based
In data set [1] the test system is human astrocytes (HA). The experiment in a line: MTT cell viability assay. As to conditions: HA treated with Coc (1 μM), 7 days. Here is the method:
The MTT cell viability assay was examined using a modified assay method as described by Rao et al (Kurapati et al. 2012). After 7 days of HIV-infection and/or treatment with an optimum concentration of Coc (1 μM), 6-well plates were given media change with 1 mL of medium. Then, 100 μL of MTT (100 mg MTT/20 ml PBS) was added to each well and the wells were incubated for 3 h at 37° C. Further, one volume of stop mix solution was added to each well. The plates were then rocked for about 2 h and centrifuged.
The optical density of the solubilized formazan was determined spectrophotometrically measuring the absorbance at 550 nm after transferring into the 96-well plate. The optical density of formazan in each well is directly proportional to the cell viability and utilized for calculations.
Considering cell viability as a major factor, HA toxicity was evaluated in terms of cell viability as a function of levels of HIV infection ranging from 10 ng/mL to 30 ng/mL using MTT assay.

The test system of data set [2] is human astrocytes (HA). The experiment in a line: EIS measurement of charge transfer resistance (Rct) of HA grown on IDE-Au cultureware chip. On the procedure: A cultureware chip (CC) comprising eight wells was procured from Applied Biophysics (#8WCP PET arrays) and used to grow HA for HIV infection and subsequent drug treatments. Each well (substrate area of 0.8 cm^2 and maximum volume of 600 μL) of the CC comprised a sensing substrate configured to have gold-based IDE (IDE-Au; surface area: 3.985 mm^2). In each well and on the sensing substrate, the IDE-Au array was useful to grow a large number of cells (e.g., approximately between 4000 and 8000) and designed in such a way to perform electrochemical measurements without fluctuation.
EIS was conducted in 400 μL of 5 mM PBS (pH 7.4) comprising 5 mM Fe (II)/Fe(III) as redox moieties using VMP3, a multi-channel potentiostat/galvanostats obtained from BioLogic Instruments. Each EIS measurement was made in sets of triplet and an average was used for analytical interpretation. Before processing the CC for cell culture, EIS measurement was made on […] each well. […] The cyclic voltammetry (CV) studies were also performed on CC using identical experimental conditions to validate results obtained using EIS.
A portion of the Nyquist plot of cells grown on IDE-Au takes on a semicircle shape at higher frequency that corresponds to the electron-transfer limited process. The […] of this semicircle represents the charge transfer resistance, Rct, of the system. The semicircle is followed by a linear portion of the curve (45° to the axes) corresponding to the diffusion-controlled electron transfer process (Kaushik et al. 2010).
For a biological system, the Rct value […] intra/extracellular cell properties, such as the electrical and physical properties of the HA. As a result, Rct was selected as the parameter for the assessment of HIV infection in HA and on treatments with Coc and drugs specific to both HIV and Coc. The EIS was performed on HA as a function of HIV infection doses which varies from 10 ng/mL to 30 ng/mL (FIG. 2A (b)).
Primary HA were grown in the eight-well CC plate at a concentration of approximately 8,000 cells and infected with different concentrations (ranging from 10 ng/mL to 30 ng/mL) of HIV-1 using a previously described protocol (Atluri et al. 2013; Eugenin and Berman 2007). Each well was used for a separate treatment.
After overnight infection, unabsorbed virus was washed away using PBS (pH 7.4), and the infected cells were cultured for 5 days in the presence or absence of Coc (1 μM). RA (2 μM) was added to the designated wells (specific to Coc) 2 h before each treatment involving Coc. The optimized dose of Coc selected for this study was 1 μM, which was based on our dose response study for cytotoxicity and HIV infectivity (Roy et al. 2015).
On the 5th day, 100 μg (100 μL of 1 mg/mL) of Tef was added to wells specific to HIV and incubated for 7 days in total. The dose of Tef was selected on the basis of its toxicity and efficacy as reported in our previous publication (Jayant et al. 2015).
To evaluate variations in HIV infection as a function of the Rct value (FIGS. 3A-3D) measured using EIS, an experiment was planned in 9 wells as described in FIGS. 3A-3D.

In a further data set the test system is HIV-1Ba-L (clade B). In words: p24 antigen estimation by ELISA (level of HIV infection in HA). The source says: Primary HA were purchased from ScienCell Research Laboratories (Carlsbad, Calif.; Cat. #1800-5) and grown in astrocyte medium purchased from ScienCell Laboratories (Cat. #1801) comprising 2% of fetal bovine serum (ScienCell Cat. #0010), astrocyte growth supplement (ScienCell Cat. #1852), and penicillin/streptomycin (ScienCell Cat. #0503). HIV-1Ba-L (clade B) (NIH AIDS Reagent Program Cat. #510) was obtained through AIDS Research and Reference Reagent Program, Division of AIDS, NIAID, NIH. The Cocaine hydrochloride-Sigma (Cat# C5776), rimcazole dihydrochloride-Tocris (1497, CAS#75859-03-9), and tenofovir disoproxil fumarate-Sigma (1643656; CAS #202138-50-9) were also obtained for this research.
Primary HA were grown in the eight-well CC plate at a concentration of approximately 8,000 cells and infected with different concentrations (ranging from 10 ng/mL to 30 ng/mL) of HIV-1 using a previously described protocol (Atluri et al. 2013; Eugenin and Berman 2007). Each well was used for a separate treatment. […]
450 μl of undiluted HA culture supernatant was mixed with 50 μL of lysing buffer. […] After incubation, 100 μL of stop solution was added to each well and the optical density of each well was read at 450 nm using a microplate reader (Yndart et al. 2015). […]

Molecules are shown by their SMILES. Structures can show the parent of a compound that is named as a salt.

Consider `COC(=O)[C@H]1[C@@H](OC(=O)c2ccccc2)C[C@@H]2CC[C@H]1N2C` [Coc, cocaine], for which the cell viability with human astrocytes (HA) [1] is recorded as approximately 85%. The Rct in the data set with human astrocytes (HA) [2] (HA+Coc (1 μM), normal HA 48) is reported as 21 KS; with human astrocytes (HA) [2] (HA+HIV+Coc), 140 KS.

In the case of `CC(C)OC(=O)OCOP(=O)(CO[C@H](C)Cn1cnc2c(N)ncnc21)OCOC(=O)OC(C)C.O=C(O)/C=C/C(=O)O` [Tef, tenofovir disoproxil fumarate], the “level of HIV infection (p24 antigen)” value in the data set on HIV-1Ba-L (clade B) (HIV-infected HA treated with Tef (100 μg) vs HIV-infected cells alone) is reported as “significant reduction”. Besides, the Rct worked out at 93 KS in the data set on human astrocytes (HA) [2] (HA+HIV+Coc+Tef) and 150 KΩ with human astrocytes (HA) [2] (HIV-infected HA (20 ng/mL) after Tef, HA+HIV without drug 210).

As for `C[C@@H]1CN(CCCn2c3ccccc3c3ccccc32)C[C@H](C)N1` [RA, rimcazole dihydrochloride], in the data set on HIV-1Ba-L (clade B) (HIV-infected HA with Coc and RA (2 μM) vs cells treated with HIV and Coc alone), the “level of HIV infection (p24 antigen)” value was “not statistically significant”. For the same compound, the figures for the Rct in the data set with human astrocytes (HA) [2] (HA+Coc+RA (2 μM)) and with human astrocytes (HA) [2] (HA+HIV+Coc+RA) were 34 KΩ and 105 KΩ, respectively.

The term cell viability denotes a read-out of living cells in per cent, often relative to untreated cells.
